molecular target: hTRPA1 (Homo sapiens (Human), UniProt O75762); assay: Dose response calcium flux assay (FLIPR), ChanTest hTRPA1-CHO stably transfected cell line; assay type: cell-based; details: CHO-K1 Tet-On human TRPA1 cells, cinnamaldehyde agonist (final 100 uM)
Description: IC50 Determinations of Exemplified Compounds Dose Response Assay: Chan Test hTRPA1-CHO Stably Transfected Cell Line
CHO-K1 Tet-On_HOMSA_TRPA1_Clone_20
Chinese Hamster Ovary cells, inducible expression
• Ham's F-12 with 10% tetracycline-free FBS • 1× penicillin-streptomycin • 1× glutamax • 0.01 mg/ml Blasticidin • 0.40 mg/ml Zeocin • The cell line doubling rate was ˜15 hours. […] Experiments were run at 24 hours post induction. Plating Conditions CHOK1/TRPA1 Cells: • Harvested cells with 0.025% trypsin/EDTA. • Resuspended cells in growth media without selection antibiotics. • Measured cell density and diluted to 2.4×10^5 cells/ml in media containing 1 ug/ml Doxycycline Plate 25 ul/well into 384 well black/clear tissue culture-treated plates. • Incubated overnight at 37° C. Calcium Flux Assay: Day of Assay: Reagents: • Replacement Buffer: Hank's Balanced Salt Solution, 20 mM HEPES along with 0.005% BSA and 2× Probenecid • Dye Loading Buffer: Cal-3 NW Calcium dye was prepared by dissolving the contents of one vial with […] Hank's Balanced Salt Solution containing 20 mM HEPES. • Control compounds for CHOK1/TRPA1 cells: AP-18, stock 10 mM, prepare 3.5× compound dilution in a Compound Buffer (HBSS/20 mM HEPES/0.005% BSA)—final concentration 10 uM. • Preparation of Cinnamaldehyde (agonist addition): FW=132.16 • Specific gravity=1.046 gm/cc • 1.32 gm/1.046 gm/cc=1.26 ml of stock • Add 1.74 ml DMSO=3.3 M stock • Working solution 4.5× (final 100 uM in Compound Buffer: HBSS/20 mM HEPES/0.005% BSA) • Compounds dilutions were prepared from 5 or 10 mM stock (100% DMSO): • Adjustments of volumes and concentrations were made at time of titration to reflect desired final assay concentrations. • Compounds were tested at either 20 μM three folds dilution 11 steps out or 30 μM two folds dilution 11 steps out. • 3 μl of diluted compound were transferred into Weidmann 384-well plate in duplicates side-by-side. • Compound plates were resuspended with 100 ul of HBSS/20 mM HEPES/0.005% BSA buffer (Compound Buffer): • column 1A-H: buffer/DMSO (bk) • column 2A-H: AP-18 (control antagonist for CHOK1 TRPA1 cells) • column 1I-P: ATP (control for CHOK1 teton cells) • column 2 I-P: 2APB (control antagonist for CHOK1/TRPM8 cells). Growth media was removed from the cell plates (20 ul) and 20 ul of the Replacement Buffer was added followed by addition of 25 ul of diluted dye. All three steps were performed using a Plate Washer BioTek 407. The plates were then incubated for 30′ at RT.
After incubation, both the cell and compound plates were brought to the FLIPR and 20 ul of the diluted compounds/antagonist/bk were transferred to the cell plates by the FLIPR. Plates were then incubated for 30′ at room temperature. After 30′ incubation, plates were returned to the FLIPR and 20 ul of 4.5× Cinnamaldehyde was added to the cell plates. During the compound addition as well as agonist addition, fluorescence readings were taken simultaneously from all 384 wells of the cell plate every 1.5 seconds. Five readings were taken to establish a stable baseline, then 20 ul of sample was rapidly (30 ul/sec) and simultaneously added to each well of the cell plate. The fluorescence was continuously monitored before, during and after sample/agonist addition for a total elapsed time of 100 seconds (compound addition) and 120 seconds (agonist addition). Responses (increase in peak fluorescence) in each well following agonist addition was determined. The initial fluorescence reading from each well, prior to ligand stimulation, was used a zero baseline value for the data from that well.

Sequence of hTRPA1 (O75762 whole entry): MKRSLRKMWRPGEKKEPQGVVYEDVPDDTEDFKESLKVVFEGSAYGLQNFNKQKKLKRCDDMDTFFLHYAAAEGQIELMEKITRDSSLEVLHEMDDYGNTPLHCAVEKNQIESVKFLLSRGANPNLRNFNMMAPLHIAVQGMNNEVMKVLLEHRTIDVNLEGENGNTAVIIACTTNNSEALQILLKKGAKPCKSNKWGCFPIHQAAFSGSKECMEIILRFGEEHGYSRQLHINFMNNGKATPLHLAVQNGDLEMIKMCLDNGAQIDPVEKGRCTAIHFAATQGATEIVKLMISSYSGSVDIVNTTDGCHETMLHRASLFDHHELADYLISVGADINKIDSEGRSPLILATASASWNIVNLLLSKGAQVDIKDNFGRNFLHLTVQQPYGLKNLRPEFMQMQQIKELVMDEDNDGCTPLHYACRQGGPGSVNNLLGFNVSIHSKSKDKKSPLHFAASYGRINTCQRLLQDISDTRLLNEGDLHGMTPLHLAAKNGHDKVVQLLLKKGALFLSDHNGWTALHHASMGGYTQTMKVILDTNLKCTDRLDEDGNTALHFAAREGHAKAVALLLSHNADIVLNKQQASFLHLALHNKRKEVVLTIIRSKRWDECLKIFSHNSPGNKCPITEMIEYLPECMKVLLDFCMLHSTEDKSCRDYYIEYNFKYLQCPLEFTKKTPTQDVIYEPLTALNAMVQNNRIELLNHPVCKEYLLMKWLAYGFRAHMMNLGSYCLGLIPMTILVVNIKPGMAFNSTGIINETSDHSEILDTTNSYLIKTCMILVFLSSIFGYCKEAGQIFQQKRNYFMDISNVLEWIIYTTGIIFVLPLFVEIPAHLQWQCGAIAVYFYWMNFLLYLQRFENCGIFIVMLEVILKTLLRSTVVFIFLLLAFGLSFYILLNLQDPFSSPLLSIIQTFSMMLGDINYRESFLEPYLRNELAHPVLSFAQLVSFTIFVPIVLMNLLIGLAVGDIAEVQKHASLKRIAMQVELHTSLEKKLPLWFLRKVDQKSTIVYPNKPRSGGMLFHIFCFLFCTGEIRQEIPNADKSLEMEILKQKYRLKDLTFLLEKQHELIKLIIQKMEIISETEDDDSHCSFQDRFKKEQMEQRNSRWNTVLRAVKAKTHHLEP

IC50 [nM]	Structure (SMILES)
233	CC(C)N(CC(=O)NCc1cccc(-c2cnc(C(F)(F)F)cn2)c1)S(=O)(=O)c1ccc(Cl)nc1 [Example 72, 2-[(6-Chloro-pyridine-3-sulfonyl)-isopropyl-amino]-N-[3-(5-trifluoromethyl-pyrazin-2-yl)-benzyl]-acetamide]
1760	O=C(CN(CC1COC1)S(=O)(=O)c1ccc(F)cc1)NCc1cccc(-c2ccc(C(F)(F)F)cc2)c1 [Example 54, 2-[(4-Fluoro-benzenesulfonyl)-oxetan-3-ylmethyl-amino]-N-(4′-trifluoron-3-ylmethyl-amino]-N-(4′-trifluoromethyl-biphenyl-3-ylmethyl)-acetamide]
28	CCN(CC(=O)NCc1cc(F)cc(-c2ccc(C(F)(F)F)cc2)c1)S(=O)(=O)c1ccc(F)cc1 [Example 15, 2-[Ethyl-(4-fluoro-benzenesulfonyl)-amino]-N-(5-fluoro-4′-trifluoromethyl-biphenyl-3-ylmethyl)-acetamide]
33	CCN(CC(=O)NCc1cc(-c2ccc(C(F)(F)F)cc2)ncn1)S(=O)(=O)c1ccc(F)cc1 [Example 28, 2-[Ethyl-(4-fluoro-benzenesulfonyl)-amino]-N-[6-(4-trifluoromethyl-phenyl)-pyrimidin-4-ylmethyl]-acetamide]
84	CCN(CC(=O)NCc1cccc(-c2ccc(C(F)(F)F)cn2)c1)S(=O)(=O)c1ccc(F)cc1 [Example 42, 2-[Ethyl-(4-fluoro-benzenesulfonyl)-amino]-N-[3-(5-trifluoromethyl-pyridin-2-yl)-benzyl]-acetamide]
70	CC(C)N(CC(=O)NCc1cc(-c2ccc(C(F)(F)F)cc2)ncn1)S(=O)(=O)c1cccc(F)c1 [Example 49, 2-[(3-Fluoro-benzenesulfonyl)-isopropyl-amino]-N-[6-(4-trifluoromethyl-phenyl)-pyrimidin-4-ylmethyl]-acetamide]
79	CC(C)N(CC(=O)NCc1cccc(-c2cnc(C(F)(F)F)cn2)c1)S(=O)(=O)c1ccc(F)cc1 [Example 71, 2-[(4-Fluoro-benzenesulfonyl)-isopropyl-amino]-N-[3-(5-trifluoromethyl-pyrazin-2-yl)-benzyl]-acetamide]
14	CC(C)N(CC(=O)NCc1cc(-c2ccc(C(F)(F)F)cc2)ccc1F)S(=O)(=O)c1ccc(F)cc1 [Example 37, 2-[(4-Fluoro-benzenesulfonyl)-isopropyl-amino]-N-(4-fluoro-4′-trifluoromethyl-biphenyl-3-ylmethyl)-acetamide]
34	CC(C)N(CC(=O)NCc1cccc(-c2ccc(C(F)(F)F)cc2)c1)S(=O)(=O)c1cccc(F)c1 [Example 48, 2-[(3-Fluoro-benzenesulfonyl)-isopropyl-amino]-N-(4′-trifluoromethyl-biphenyl-3-ylmethyl)-acetamide]
800	CN(C(C)(C)C(=O)NCc1cccc(-c2ccc(C(F)(F)F)cc2)c1)S(=O)(=O)c1ccc(F)cc1 [Example 7, 2-[(4-Fluoro-benzenesulfonyl)-methyl-amino]-2-methyl-N-(4′-trifluoromethyl-biphenyl-3-ylmethyl)-propionamide]
130	CN(CC(=O)NCc1cc(F)cc(-c2ccc(C(F)(F)F)cc2)c1)S(=O)(=O)c1ccc(F)cc1 [Example 11, 2-[(4-Fluoro-benzenesulfonyl)-methyl-amino]-N-(5-fluoro-4′-trifluoromethyl-biphenyl-3-ylmethyl)-acetamide]
41	COc1ccc(CNC(=O)CN(C(C)C)S(=O)(=O)c2ccc(F)cc2)cc1-c1ccc(C(F)(F)F)cc1 [Example 47, 2-[(4-Fluoro-benzenesulfonyl)-isopropyl-amino]-N-(6-methoxy-4′-trifluoromethyl-biphenyl-3-ylmethyl)-acetamide]
79	CC(C)N(CC(=O)NCc1cccc(-c2ccc(C(F)(F)F)cn2)c1)S(=O)(=O)c1cccc(F)c1 [Example 50, 2-[(3-Fluoro-benzenesulfonyl)-isopropyl-amino]-N-[3-(5-trifluoromethyl-pyridin-2-yl)-benzyl]-acetamide]
38	CC(C)N(CC(=O)NCc1cc(F)cc(-c2ccc(C(F)(F)F)nc2)c1)S(=O)(=O)c1ccc(F)cc1 [Example 63, 2-[(4-Fluoro-benzenesulfonyl)-isopropyl-amino]-N-[3-fluoro-5-(6-trifluoromethyl-pyridin-3-yl)-benzyl]-acetamide]
98	COC[C@@H](C(=O)NCc1cccc(-c2ccc(C(F)(F)F)cc2)c1)N(C)S(=O)(=O)c1ccc(F)cc1 [Example 52, (S)-2-[(4-Fluoro-benzenesulfonyl)-methyl-amino]-3-methoxy-N-(4′-trifluoromethyl-biphenyl-3-ylmethyl)-propionamide]
130	CC(C)N(CC(=O)NCc1cc(-c2ccc(C(F)(F)F)nc2)ccn1)S(=O)(=O)c1ccc(F)cc1 [Example 55, 2-[(4-Fluoro-benzenesulfonyl)-isopropyl-amino]-N-(6-trifluoromethyl-[3,4′]bipyridinyl-2′-ylmethyl)-acetamide]
190	O=C(CN(C1CC1)S(=O)(=O)c1ccc(F)cc1)NCc1cccc(-c2ccc(C(F)(F)F)cc2)c1 [Example 22, 2-[Cyclopropyl-(4-fluoro-benzenesulfonyl)-amino]-N-(4′-trifluoromethyl-biphenyl-3-ylmethyl)-acetamide]
4800	CN(CC(=O)NCc1ccc(-c2ccc(C(F)(F)F)cc2)cc1)S(=O)(=O)c1ccc(F)cc1 [Example 10, 2-[(4-Fluoro-benzenesulfonyl)-methyl-amino]-N-(4′-trifluoromethyl-biphenyl-4-ylmethyl)-acetamide]
1080	O=C(CNS(=O)(=O)c1ccc(F)cc1)NCc1cccc(-c2ccc(C(F)(F)F)cc2)c1 [Example 3, 2-(4-Fluoro-benzenesulfonylamino)-N-(4′-trifluoromethyl-biphenyl-3-ylmethyl)-acetamide]
130	CCN(CC(=O)NCc1ccc(OC)c(-c2ccc(C(F)(F)F)cc2)c1)S(=O)(=O)c1ccc(F)cc1 [Example 46, 2-[Ethyl-(4-fluoro-benzenesulfonyl)-amino]-N-(6-methoxy-4′-trifluoromethyl-biphenyl-3-ylmethyl)-acetamide]
298	CC(C)N(CC(=O)NCc1ccnc(-c2cnc(C(F)(F)F)nc2)c1)S(=O)(=O)c1ccc(F)cc1 [Example 74, 2-[(4-Fluoro-benzenesulfonyl)-isopropyl-amino]-N-[2-(2-trifluoromethyl-pyrimidin-5-yl)-pyridin-4-ylmethyl]-acetamide]
3860	CC(C)N(CC(=O)NCc1cc(-c2ccc(C(F)(F)F)cc2)ncn1)S(=O)(=O)c1ccccc1C#N [Example 65, 2-[(2-Cyano-benzenesulfonyl)-isopropyl-amino]-N-[6-(4-trifluoromethyl-phenyl)-pyrimidin-4-ylmethyl]-acetamide]
64	C[C@H](C(=O)NCc1cc(-c2ccc(C(F)(F)F)cc2)ncn1)N(C)S(=O)(=O)c1ccc(F)cc1 [Example 38, (R)-2-[(4-Fluoro-benzenesulfonyl)-methyl-amino]-N-[6-(4-trifluoromethyl-phenyl)-pyrimidin-4-ylmethyl]-propionamide]
180	CC(C)N(CC(=O)NCc1cncc(-c2ccc(C(F)(F)F)cc2)c1)S(=O)(=O)c1ccc(F)cc1 [Example 57, 2-[(4-Fluoro-benzenesulfonyl)-isopropyl-amino]-N-[5-(4-trifluoromethyl-phenyl)-pyridin-3-ylmethyl]-acetamide]

Reference: US9580411B2, “Substituted sulfonamide compounds” (Hoffmann-La Roche Inc., priority 2012, dated 2017)
